Assay results published in patent publication US20070219268A1, “Anti-cancer activity augmentation compounds and formulations and methods of use thereof” (BioNumerik Pharmaceuticals, Inc., priority 2006, published 2007).
“Also recorded” adds a separate entry of the source.

Assays:
[1] = biological target: T1, glutathione-S-transferase (GST), m1-1 isotype (Homo sapiens, UniProt P09488); assay: GST assay: conjugation of reduced glutathione to CDNB, absorbance at 340 nm; assay type: biochemical; conditions: difference of relative activity from 100%
T1 construct: purchased
T1 sequence (P09488 1-218): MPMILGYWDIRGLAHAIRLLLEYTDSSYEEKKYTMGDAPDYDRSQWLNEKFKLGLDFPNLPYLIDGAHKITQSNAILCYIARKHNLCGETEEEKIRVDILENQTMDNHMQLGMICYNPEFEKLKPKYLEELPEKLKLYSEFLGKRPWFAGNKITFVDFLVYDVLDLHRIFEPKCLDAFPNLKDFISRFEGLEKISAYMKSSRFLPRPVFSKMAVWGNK
Text: The following experiments were designed to determine if Tavocept™ has an inhibitory or stimulatory effect on GST. […] An in vitro assay for GST has been developed and reported. See, Meyer, D. J. and Ketterer, B., Purification of soluble human glutathione S-transferases. Methods Enzymol. 252:53-65 (1995). This assay monitors the conjugation of reduced glutathione to 1-chloro-2,4-dinitrobenzene (CDNB), as illustrated in Reaction Scheme II, below.
Reduced thiol forms a conjugate with CDNB (extinction coefficient=9600 M^−1 cm^−1), which is detected at 340 nm. Stock solutions of GSH, CDNB, Tavocept™ were prepared by dissolving the reagent in sterile water at the concentrations listed below prior to use. […] Slopes were measured in the linear range of the assay (i.e., typically between 5 to 10 min.). In assays where the effect of Tavocept™ on GST activity was measured, 20 μL of either a 500 mM, 166.7 mM, or 55.6 mM stock solution of Tavocept™ was added to standard reactions using 1 mM GSH as the enzyme substrate. […]
Raw data was obtained on a Cary 100 spectrophotometer. […] No absorbance values were collected during the process of enzyme addition. […] It was during this time that reaction rates (i.e., slopes of change in absorbance with time) were measured using the Cary 100 software. […]

thioredoxin (TRX) = biological target: T2, thioredoxin (TRX) (Homo sapiens, UniProt P10599); assay: NADPH oxidation at 340 nm by TRR in the presence of TRX; assay type: biochemical
T2 sequence (P10599 1-105): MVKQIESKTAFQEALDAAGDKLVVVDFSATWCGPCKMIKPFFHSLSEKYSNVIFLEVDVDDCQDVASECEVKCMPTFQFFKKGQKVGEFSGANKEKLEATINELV
Procedure: (§1) The activity of TRR and TRX was determined by following NADPH oxidation at 340 nm according to the previously reported method. See, Luthman, M., and Holmgren, A. Rat liver thioredoxin and thioredoxin reductase: purification and characterization. Biochemistry 21:6628-6633 (1982). A typical assay mixture contained TR buffer (50 mM potassium phosphate, pH 7.0, 1 mM EDTA), 200 μM NADPH, 1.6 μg bovine TRR, and one or more of the following: 4.8 μM TRX, 86 μM insulin, and one of the disulfides described herein. All disulfides were added to reactions as 10× solutions in TR buffer. The total volume of each reaction was 0.1 mL. Reactions were initiated by the addition of TRR and were incubated at 25° C. for 40 min. The activity was calculated using a 4 min. linear portion of each reaction. Enzyme assays were carried out using either a Molecular Devices SpectraMaxPlus UV plate reader or a Varian Cary 100 UV-visible Spectrophotometer.
(§2) Data was then collected and plotted in Microsoft Excel. Error calculations, and graphical representations were performed in Microsoft Excel and Kaleidograph (ver. 3.5). Nonlinear data was graphically rendered using Kaleidograph. ANOVA and other statistical analyses were performed using SAS (ver. 8.2). Unless otherwise noted, significance level was set at 0.05, and error bars represent actual experimental standard deviation.

[2] = biological target: T3, thioredoxin reductase (TRR) (Bos taurus, UniProt O62768); assay: NADPH oxidation at 340 nm by TRR in the absence of TRX; assay type: biochemical, bovine
T3 sequence (O62768 1-499): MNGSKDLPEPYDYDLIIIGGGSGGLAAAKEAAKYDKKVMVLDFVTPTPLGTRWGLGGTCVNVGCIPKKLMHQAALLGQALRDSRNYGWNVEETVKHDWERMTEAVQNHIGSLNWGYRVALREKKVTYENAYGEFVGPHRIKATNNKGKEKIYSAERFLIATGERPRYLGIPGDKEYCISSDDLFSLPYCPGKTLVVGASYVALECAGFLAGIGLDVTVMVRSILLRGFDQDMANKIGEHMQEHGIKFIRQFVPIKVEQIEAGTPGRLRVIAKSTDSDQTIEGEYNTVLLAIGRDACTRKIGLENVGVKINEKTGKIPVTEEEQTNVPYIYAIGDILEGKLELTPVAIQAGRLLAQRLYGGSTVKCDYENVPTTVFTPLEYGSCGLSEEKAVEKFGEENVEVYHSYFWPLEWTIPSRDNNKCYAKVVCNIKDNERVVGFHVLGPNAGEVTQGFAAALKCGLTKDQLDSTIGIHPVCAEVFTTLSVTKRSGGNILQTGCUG
Procedure: as §1, §2

glutaredoxin = biological target: T4, glutaredoxin (Homo sapiens, UniProt P35754); assay: Glutaredoxin assay in the presence of reduced glutathione and glutathione reductase; assay type: biochemical
T4 sequence (P35754 1-106): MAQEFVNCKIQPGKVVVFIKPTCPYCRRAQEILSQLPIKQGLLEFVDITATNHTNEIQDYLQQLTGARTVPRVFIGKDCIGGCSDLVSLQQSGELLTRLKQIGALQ
Text: In addition to the absence of interference with anti-cancer activity, results from in vivo studies have shown that Tavocept™ may elicit the restoration of apoptotic sensitivity in tumor cells through thioredoxin- and glutaredoxin-mediated mechanisms and this may be an important element of its effectiveness as a chemotherapeutic agent.

[3] = based on magnitude and concentration-dependence of oxidation responses

O=S(=O)([O-])CCSSCCS(=O)(=O)[O-].[Na+].[Na+] [Tavocept™, disodium 2,2′-dithio-bis-ethane sulfonate]
Percent Inhibition ([1]; 1.1 mM Tavocept): 5.6%
Percent Inhibition ([1]; 3.3 mM Tavocept): 39%
NADPH oxidation by TRR in the presence of TRX (thioredoxin (TRX); 4.8 μM TRX, 200 μM NADPH, 25° C.): concentration-dependent increase
substrate for TRX (thioredoxin (TRX); [3]): most likely a substrate for TRX; also recorded: substrate for thioredoxin
substrate for TRR [2, 3]: not for TRR
NADPH oxidation by TRR in the absence of TRX ([2]; no TRX, 200 μM NADPH, 25° C.): indistinguishable from background
activity with glutaredoxin (glutaredoxin): substrate-like activity
